{"source": "patent US20180237441A1", "about": "“Chemical Compounds” (GlaxoSmithKline Intellectual Property (No.2) Limited, priority 2015, published 2018)", "data": [{"target": "T1, PERK (Homo sapiens, UniProt Q9NZJ5)", "T1 sequence (Q9NZJ5 30-1116)": "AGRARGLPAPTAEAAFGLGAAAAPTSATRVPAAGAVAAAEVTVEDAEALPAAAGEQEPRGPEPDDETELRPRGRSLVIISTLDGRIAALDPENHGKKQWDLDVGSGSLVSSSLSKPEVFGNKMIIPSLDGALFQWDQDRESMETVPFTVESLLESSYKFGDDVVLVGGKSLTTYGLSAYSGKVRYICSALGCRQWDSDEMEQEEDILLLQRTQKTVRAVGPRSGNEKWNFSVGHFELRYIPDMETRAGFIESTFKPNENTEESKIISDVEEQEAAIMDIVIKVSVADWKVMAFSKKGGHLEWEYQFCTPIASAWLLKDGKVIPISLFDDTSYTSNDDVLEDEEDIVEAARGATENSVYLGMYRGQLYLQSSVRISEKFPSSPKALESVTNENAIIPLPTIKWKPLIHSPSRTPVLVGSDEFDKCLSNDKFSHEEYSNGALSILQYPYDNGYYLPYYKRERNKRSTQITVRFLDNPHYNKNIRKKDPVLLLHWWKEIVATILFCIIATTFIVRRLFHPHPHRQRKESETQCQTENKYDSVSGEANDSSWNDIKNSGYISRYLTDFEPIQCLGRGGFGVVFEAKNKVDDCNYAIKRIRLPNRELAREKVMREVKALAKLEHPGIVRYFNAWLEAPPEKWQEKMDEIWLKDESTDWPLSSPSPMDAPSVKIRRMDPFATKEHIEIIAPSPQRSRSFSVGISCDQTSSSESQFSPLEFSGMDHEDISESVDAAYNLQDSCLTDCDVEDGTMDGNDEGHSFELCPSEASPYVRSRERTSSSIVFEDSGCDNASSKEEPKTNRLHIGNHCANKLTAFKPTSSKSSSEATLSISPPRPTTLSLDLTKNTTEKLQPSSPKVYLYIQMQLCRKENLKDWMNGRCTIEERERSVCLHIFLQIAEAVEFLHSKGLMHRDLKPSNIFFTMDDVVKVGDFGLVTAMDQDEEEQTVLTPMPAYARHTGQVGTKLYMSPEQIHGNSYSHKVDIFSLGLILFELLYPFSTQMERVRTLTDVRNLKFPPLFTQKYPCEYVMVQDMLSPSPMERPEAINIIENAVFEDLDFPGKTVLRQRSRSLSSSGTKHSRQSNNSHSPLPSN", "test": "PERK enzyme assay (HTRF)", "assay_type": "biochemical", "conditions": "500 μM ATP; at least one experimental run; read-out: PERK Enzyme (500 μM ATP) IC50", "procedure": "(§1) Compounds of the invention were assayed for PERK enzyme inhibitory activity with modifications to previously reported conditions (Axten et al. J. Med. Chem., 2012, 55, 7193-7207). Briefly, various concentrations of compounds (maximum 1% DMSO) were dispensed into 384-well plates containing GST-PERK enzyme. After 30-60 minutes of compound pre-incubation, ATP and biotin-eIF2α were added and after 60 minutes the reaction was quenched. After 2 hrs, a fluorescence plate reader was used to measure inhibition and IC50s were calculated.\n(§2) Enzyme Assay Protocol for PKR-Like Endoplasmic Reticulum Kinase (PERK)—HTRF —% Inhibition\n(§3) Assay Buffer contains HEPES (pH7.5) 10 mM, CHAPS 2 mM, MgCl2 5 mM and DTT 1 mM in water\n(§4) Detection Buffer contains HEPES (pH7.5) 10 mM and CHAPS 2 mM in water Assay Plate Preparation:\n(§5) 1. Enzyme Preparation: • 4× Enzyme solution was prepared immediately prior to adding to compound plates. • 3 nM of GST-PERK in Assay buffer. Final [PERK] in 10 μl assay volume=0.75 nM\n(§6) 2. Substrate Preparation: • 4× Substrate solution was prepared immediately prior to adding to compound plates. • 4× Substrate solution in assay buffer 2000 μM ATP and 160 nM Biotin-eIF2α • Final [ATP] in 10 μl assay volume=500 μM • Final [biotin-eIF2a] in 10 μl assay volume=40 nM.\n(§7) 3. Quench/Detection Solution: • 16 nM eIF2 Phospho-Antibody • 16 nM Eu anti-Rabbit IgG • 160 nM Streptavidin-APC • 60 mM EDTA • Final concentration in 10 μL assay volume: 4 nM eIF2 Phospho-Antibody, 4 nM Eu anti-Rabbit IgG 40 nM Streptavidin-APC\n(§8) The activity of compounds in the PERK enzyme assay was determined at PERK Enzyme (500 μM ATP) IC50 (nM).", "units": {"IC50": "nM"}, "values": [{"compound": "CN1C(=O)N(c2ccc(-c3cn(C)c4ncnc(N)c34)c(F)c2)CC1c1ccc(F)cc1F", "note": "(single isomer, unassigned) [Example 46, 1-(4-(4-amino-7-methyl-7H-pyrrolo[2,3-d]pyrimidin-5-yl)-3-fluorophenyl)-4-(2,4-difluorophenyl)-3-methylimidazolidin-2-one]", "IC50": 13.8}, {"compound": "Cc1nc(N)c2c(-c3ccc(N4CC(c5ccc(F)cc5F)N(C)C4=O)cc3F)cn(C)c2n1", "note": "(single isomer, unassigned) [Example 66, 1-(4-(4-amino-2,7-dimethyl-7H-pyrrolo[2,3-d]pyrimidin-5-yl)-3-fluorophenyl)-4-(2,4-difluorophenyl)-3-methylimidazolidin-2-one]", "IC50": 86.9}, {"compound": "CN1C(=O)N(c2ccc(-c3cn(C)c4ncnc(N)c34)c(F)c2)CC1c1cc(F)cc(F)c1", "note": "(single isomer, unassigned) [Example 100, 1-(4-(4-amino-7-methyl-7H-pyrrolo[2,3-d]pyrimidin-5-yl)-3-fluorophenyl)-4-(3,5-difluorophenyl)-3-methylimidazolidin-2-one]", "IC50": 3}]}, {"target": "T1, PERK", "test": "PERK enzyme assay (HTRF)", "assay_type": "biochemical", "conditions": "PERK Enzyme (500 μM ATP) IC50; at least one experimental run; read-out: PERK Activity", "procedure": "as §1, §2, §3, §4, §5, §6, §7, §8", "units": {"IC50": "nM"}, "values": [{"compound": "Cc1nc(N)c2c(-c3ccc(N4CC(c5ccc(F)cc5F)N(C)C4=O)cc3F)cn(C)c2n1", "note": "(stereo not drawn) [Example 65, 1-(4-(4-amino-2,7-dimethyl-7H-pyrrolo[2,3-d]pyrimidin-5-yl)-3-fluorophenyl)-4-(2,4-difluorophenyl)-3-methylimidazolidin-2-one]", "IC50": "100 to 1000"}, {"compound": "CCN1C(=O)N(c2ccc(-c3cn(C)c4ncnc(N)c34)cn2)CC1c1cc(F)ccc1F", "note": "(stereo not drawn) [Example 41, 1-(5-(4-amino-7-methyl-7H-pyrrolo[2,3-d]pyrimidin-5-yl)pyridin-2-yl)-4-(2,5-difluorophenyl)-3-ethylimidazolidin-2-one]", "IC50": "100 to 1000"}, {"compound": "CCN1C(=O)N(c2ccc(-c3cn(C)c4ncnc(N)c34)c(F)c2)CC1c1ccc(F)cc1", "note": "(stereo not drawn) [Example 57]", "IC50": "< 100"}, {"compound": "CN1C(=O)N(c2ccc(-c3cn(C)c4ncnc(N)c34)c(F)c2)CC1c1ccc(F)cc1F", "note": "(single isomer, unassigned) [Example 46, 1-(4-(4-amino-7-methyl-7H-pyrrolo[2,3-d]pyrimidin-5-yl)-3-fluorophenyl)-4-(2,4-difluorophenyl)-3-methylimidazolidin-2-one]", "IC50": "< 100"}, {"compound": "Cc1nc(N)c2c(-c3ccc(N4CC(c5ccc(F)c(F)c5)N(C)C4=O)cc3F)cn(C)c2n1", "note": "(single isomer, unassigned) [Example 80, 1-(4-(4-amino-2,7-dimethyl-7H-pyrrolo[2,3-d]pyrimidin-5-yl)-3-fluorophenyl)-4-(3,4-difluorophenyl)-3-methylimidazolidin-2-one]", "IC50": "< 100"}, {"compound": "CCN1C(=O)N(c2ccc(-c3cn(C4CC4)c4ncnc(N)c34)c(F)c2)CC1c1cc(F)ccc1F", "note": "(single isomer, unassigned) [Example 123, 1-(4-(4-amino-7-cyclopropyl-7H-pyrrolo[2,3-d]pyrimidin-5-yl)-3-fluorophenyl)-4-(2,5-difluorophenyl)-3-ethylimidazolidin-2-one]", "IC50": "100 to 1000"}, {"compound": "CN1C(=O)N(c2ccc(-c3cn(C4CC4)c4ncnc(N)c34)c(F)c2)CC1c1ccc(F)c(Cl)c1", "note": "(stereo not drawn) [Example 132, 1-(4-(4-amino-7-cyclopropyl-7H-pyrrolo[2,3-d]pyrimidin-5-yl)-3-fluorophenyl)-4-(3-chloro-4-fluorophenyl)-3-methylimidazolidin-2-one]", "IC50": "< 100"}, {"compound": "Cc1cc(C)cc(C2CC(=O)N(c3ccc(-c4cn(C)c5ncnc(N)c45)c(F)c3)C2)c1", "note": "(stereo not drawn) [Example 30, 1-(4-(4-amino-7-methyl-7H-pyrrolo[2,3-d]pyrimidin-5-yl)-3-fluorophenyl)-4-(3,5-dimethylphenyl)pyrrolidin-2-one]", "IC50": "< 100"}, {"compound": "CN1C(=O)N(c2ccc(-c3cn(C4CC4)c4ncnc(N)c34)c(F)c2)CC1c1cccc(Cl)c1", "note": "(single isomer, unassigned) [Example 152, 1-(4-(4-amino-7-cyclopropyl-7H-pyrrolo[2,3-d]pyrimidin-5-yl)-3-fluorophenyl)-4-(3-chlorophenyl)-3-methylimidazolidin-2-one]", "IC50": "< 100"}, {"compound": "CN1C(=O)N(c2ccc(-c3cn(C4CC4)c4ncnc(N)c34)c(F)c2)CC1c1ccc(F)c(F)c1", "note": "(single isomer, unassigned) [Example 116, 1-(4-(4-amino-7-cyclopropyl-7H-pyrrolo[2,3-d]pyrimidin-5-yl)-3-fluorophenyl)-4-(3,4-difluorophenyl)-3-methylimidazolidin-2-one]", "IC50": "< 100"}, {"compound": "COc1ccc(C2CN(c3ccc(-c4cn(C)c5nc(C)nc(N)c45)c(F)c3)C(=O)N2C)cc1", "note": "(stereo not drawn) [Example 64, 1-(4-(4-amino-2,7-dimethyl-7H-pyrrolo[2,3-d]pyrimidin-5-yl)-3-fluorophenyl)-4-(4-methoxyphenyl)-3-methylimidazolidin-2-one]", "IC50": "100 to 1000"}, {"compound": "CCN1C(=O)N(c2ccc(-c3cn(C4CC4)c4ncnc(N)c34)c(F)c2)CC1c1cc(F)cc(F)c1", "note": "(single isomer, unassigned) [Example 174, 1-(4-(4-amino-7-cyclopropyl-7H-pyrrolo[2,3-d]pyrimidin-5-yl)-3-fluorophenyl)-4-(3,5-difluorophenyl)-3-ethylimidazolidin-2-one]", "IC50": "< 100"}, {"compound": "Cc1nc(N)c2c(-c3ccc(N4CC(c5ccc(F)cc5F)N(C)C4=O)cc3F)cn(C)c2n1", "note": "(single isomer, unassigned) [Example 66, 1-(4-(4-amino-2,7-dimethyl-7H-pyrrolo[2,3-d]pyrimidin-5-yl)-3-fluorophenyl)-4-(2,4-difluorophenyl)-3-methylimidazolidin-2-one]", "IC50": "< 100"}, {"compound": "Cc1nc(N)c2c(-c3ccc(N4CC(c5ccc(F)cc5)N(C)C4=O)cc3F)cn(C)c2n1", "note": "(stereo not drawn) [Example 69, 1-(4-(4-amino-2,7-dimethyl-7H-pyrrolo[2,3-d]pynmidin-5-yl)-3-fluorophenyl)-4-(4-fluorophenyl)-3-methylimidazolidin-2-one]", "IC50": "< 100"}, {"compound": "CCN1C(=O)N(c2ccc(-c3cn(C4CC4)c4ncnc(N)c34)c(F)c2)CC1c1ccc(F)cc1F", "note": "(stereo not drawn) [Example 107, 1-(4-(4-amino-7-cyclopropyl-7H-pyrrolo[2,3-d]pyrimidin-5-yl)-3-fluorophenyl)-4-(2,4-difluorophenyl)-3-ethylimidazolidin-2-one]", "IC50": "< 100"}, {"compound": "CN1C(=O)N(c2ccc(-c3cn(C)c4ncnc(N)c34)c(F)c2)CC1c1cc(F)cc(F)c1", "note": "(single isomer, unassigned) [Example 100, 1-(4-(4-amino-7-methyl-7H-pyrrolo[2,3-d]pyrimidin-5-yl)-3-fluorophenyl)-4-(3,5-difluorophenyl)-3-methylimidazolidin-2-one]", "IC50": "< 100"}, {"compound": "CN1C(=O)N(c2ccc(-c3cn(C4CC4)c4ncnc(N)c34)c(F)c2)CC1c1ccccc1", "note": "(single isomer, unassigned) [Example 166, 1-(4-(4-amino-7-cyclopropyl-7H-pyrrolo[2,3-d]pyrimidin-5-yl)-3-fluorophenyl)-3-methyl-4-phenylimidazolidin-2-one]", "IC50": "< 100"}, {"compound": "CN1C(=O)N(c2ccc(-c3cn(C)c4ncnc(N)c34)c(Cl)c2)CC1c1cc(F)cc(F)c1", "note": "(single isomer, unassigned) [Example 128, 1-(4-(4-amino-7-methyl-7H-pyrrolo[2,3-d]pyrimidin-5-yl)-3-chlorophenyl)-4-(3,5-difluorophenyl)-3-methylimidazolidin-2-one]", "IC50": "< 100"}, {"compound": "COc1cccc(C2CN(c3ccc(-c4cn(C)c5ncnc(N)c45)c(F)c3)C(=O)N2C)c1", "note": "(single isomer, unassigned) [Example 103, 1-(4-(4-amino-7-methyl-7H-pyrrolo[2,3-d]pyrimidin-5-yl)-3-fluorophenyl)-4-(3-methoxyphenyl)-3-methylimidazolidin-2-one]", "IC50": "< 100"}, {"compound": "CCN1C(=O)N(c2ccc(-c3cn(C)c4ncnc(N)c34)c(F)c2)CC1c1cc(F)ccc1F", "note": "(racemic) [Example 1, 1-(4-(4-amino-7-methyl-7H-pyrrolo[2,3-d]pyrimidin-5-yl)-3-fluorophenyl)-4-(2,5-difluorophenyl)-3-ethylimidazolidin-2-one]", "IC50": "100 to 1000"}, {"compound": "CCN1C(=O)N(c2ccc(-c3c(C)n(C)c4ncnc(N)c34)c(F)c2)CC1c1ccc(F)cc1F", "note": "(stereo not drawn) [Example 93, 1-(4-(4-amino-6,7-dimethyl-7H-pyrrolo[2,3-d]pyrimidin-5-yl)-3-fluorophenyl)-4-(2,4-difluorophenyl)-3-ethylimidazolidin-2-one]", "IC50": "100 to 1000"}]}]}
